From patent US20130109682A1, “CYCLIC ETHER COMPOUNDS USEFUL AS KINASE INHIBITORS” (NOVARTIS AG, priority 2010, published 2013)

Assays:
PIM1 = PIM1 (Homo sapiens, UniProt P11309); assay: KinaseGlo Pim1 ATP depletion assay; assay type: biochemical
How it was run: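 2.5 nM PIM1 preincubated 15 min with compound and 40 μM BAD peptide in 50 mM HEPES pH 7.5, 5 mM MgCl2, 1 mM DTT, 0.05% BSA, 2.5% DMSO. The reaction was started with 20 μM ATP (final) and run to about 50% ATP depletion. Remaining ATP read by KinaseGlo Plus luminescence to give IC50.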

PIM2 = PIM2 (Homo sapiens, UniProt Q9P1W9); assay: KinaseGlo Pim2 ATP depletion assay; assay type: biochemical
PIM2, sequence (Q9P1W9 whole entry): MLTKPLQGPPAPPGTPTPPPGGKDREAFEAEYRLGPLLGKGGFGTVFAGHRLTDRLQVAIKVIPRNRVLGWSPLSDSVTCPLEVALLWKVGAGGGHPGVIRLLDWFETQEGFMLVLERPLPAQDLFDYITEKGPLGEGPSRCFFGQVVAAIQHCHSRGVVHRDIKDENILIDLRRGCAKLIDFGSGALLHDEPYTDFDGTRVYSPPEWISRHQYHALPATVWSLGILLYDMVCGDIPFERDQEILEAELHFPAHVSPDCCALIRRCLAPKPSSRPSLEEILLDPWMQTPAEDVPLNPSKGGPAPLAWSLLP
How it was run: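 Luminescent ATP-depletion read-out of PIM2 phosphorylating BAD peptide (RSRHSSYPAGT-OH). Final conditions: 5 nM PIM2, 4 μM ATP, 10 μM peptide, 2.5% DMSO in 50 mM HEPES pH 7.5, 5 mM MgCl2, 1 mM DTT, 0.05% BSA. Enzyme–peptide preincubated 15 min with compound; reaction run to ~50% ATP depletion.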

PIM3 = PIM3 (Homo sapiens, UniProt Q86V86); assay: KinaseGlo Pim3 ATP depletion assay; assay type: biochemical
How it was run: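 Kinase was preincubated 15 min with BAD peptide in HEPES pH 7.5/MgCl2/DTT/BSA before ATP was added. Final concentrations were 40 μM ATP, 100 μM BAD peptide and 2.5% DMSO, with 5 nM enzyme. The reaction ran to ~50% ATP depletion and remaining ATP was read by KinaseGlo Plus luminescence.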

GSK3β = GSK3β (Homo sapiens, UniProt P49841); assay: GSK3β ATP depletion assay; assay type: biochemical; conditions: read-out: GSK3b IC50
GSK3β, sequence (P49841 whole entry, species assumed): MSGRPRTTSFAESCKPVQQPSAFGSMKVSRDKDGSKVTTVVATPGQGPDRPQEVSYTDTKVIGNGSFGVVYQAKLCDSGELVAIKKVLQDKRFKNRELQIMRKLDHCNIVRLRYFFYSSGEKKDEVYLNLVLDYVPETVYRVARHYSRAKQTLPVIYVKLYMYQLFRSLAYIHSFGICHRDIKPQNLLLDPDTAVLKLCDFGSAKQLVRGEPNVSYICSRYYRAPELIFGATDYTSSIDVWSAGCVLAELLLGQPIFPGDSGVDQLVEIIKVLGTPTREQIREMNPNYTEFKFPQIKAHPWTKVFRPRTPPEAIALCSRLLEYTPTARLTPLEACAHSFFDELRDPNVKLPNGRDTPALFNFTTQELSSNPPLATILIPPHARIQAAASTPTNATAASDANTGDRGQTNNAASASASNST
How it was run: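 Human GSK3β (5 nM) preincubated 15 min with 10 μM biotinylated phospho-CREB peptide in pH 7.5 Tris buffer (15 mM MgCl2, 1 mM DTT, 0.1% BSA, 2.5% DMSO). Reaction started with 2 μM ATP and run to about 50% ATP depletion. Remaining ATP measured by KinaseGlo luminescence.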

[1] = test system: KMS11 (human myeloma cell line); assay: Cell proliferation assay (CellTiter-Glo), KMS11; assay type: cell-based; conditions: Homo sapiens, KMS-11; KMS11-Luc cells
How it was run: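 KMS11 cells in IMDM with 10% FBS and sodium pyruvate, seeded at 2000 cells/well on assay day. Compound added at 2× to equal volume of cells, incubated 3 days at 37° C. Viability read by CellTiter-Glo luminescence; EC50 derived.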

hERG = target: T1, hERG (Homo sapiens, UniProt Q12809); assay: hERG binding assay ([3H] dofetilide displacement); conditions: dofetilide displacement; read-out: HERGdof IC50
T1 construct: host or cells: crude membrane suspension
T1 sequence (Q12809 whole entry): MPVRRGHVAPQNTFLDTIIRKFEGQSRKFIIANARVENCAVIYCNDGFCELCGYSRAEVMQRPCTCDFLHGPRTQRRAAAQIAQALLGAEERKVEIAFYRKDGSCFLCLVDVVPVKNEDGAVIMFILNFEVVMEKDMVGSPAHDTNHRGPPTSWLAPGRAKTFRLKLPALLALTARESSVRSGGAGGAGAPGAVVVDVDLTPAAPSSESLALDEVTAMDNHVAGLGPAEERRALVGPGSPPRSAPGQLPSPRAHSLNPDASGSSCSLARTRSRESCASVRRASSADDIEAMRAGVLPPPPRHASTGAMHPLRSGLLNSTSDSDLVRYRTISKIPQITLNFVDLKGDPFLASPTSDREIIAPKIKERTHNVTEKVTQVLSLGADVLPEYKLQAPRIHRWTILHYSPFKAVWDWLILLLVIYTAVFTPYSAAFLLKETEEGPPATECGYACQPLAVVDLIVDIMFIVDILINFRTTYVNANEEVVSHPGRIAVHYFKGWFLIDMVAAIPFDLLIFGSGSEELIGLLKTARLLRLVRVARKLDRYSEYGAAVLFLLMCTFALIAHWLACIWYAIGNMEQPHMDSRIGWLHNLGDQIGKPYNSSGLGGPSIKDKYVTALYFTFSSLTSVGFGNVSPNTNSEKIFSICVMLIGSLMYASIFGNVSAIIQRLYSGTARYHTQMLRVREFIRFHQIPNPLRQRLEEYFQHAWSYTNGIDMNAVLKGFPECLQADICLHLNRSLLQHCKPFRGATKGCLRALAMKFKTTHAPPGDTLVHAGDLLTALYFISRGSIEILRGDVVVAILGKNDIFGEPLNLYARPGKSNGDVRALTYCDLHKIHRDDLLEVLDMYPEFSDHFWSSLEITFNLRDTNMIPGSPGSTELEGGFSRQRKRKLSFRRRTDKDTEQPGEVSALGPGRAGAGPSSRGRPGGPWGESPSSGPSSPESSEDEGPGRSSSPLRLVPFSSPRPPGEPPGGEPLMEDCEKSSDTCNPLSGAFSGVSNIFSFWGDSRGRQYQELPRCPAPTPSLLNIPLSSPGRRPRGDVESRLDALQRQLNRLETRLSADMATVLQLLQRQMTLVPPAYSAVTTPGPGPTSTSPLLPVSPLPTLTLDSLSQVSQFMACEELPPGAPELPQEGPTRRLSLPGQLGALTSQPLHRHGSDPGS
Experimental: Compounds of the invention were pipetted into each well of pre-wet 96-well Millipore GF/C filter plates (#MSFCN6B50): 119 μl assay buffer, 1 μl test compound in 100% DMSO (or 100% DMSO only for total binding), 40 μl [3H] dofetilide (12.5 nM, final concentration 2.5 nM; Novartis radioisotope laboratory, East Hanover, N.J., USA, specific activity 15-45 Ci/mmol); 40 μl crude membrane suspension (ca. 15 μg protein). The final concentration of DMSO during the incubation was 0.5%. Incubations were performed at room temperature for 90 min. Non-specific binding (NSB) was defined as the binding remaining in the presence of 25 μM terfenadine (Sigma T9652). The incubations were terminated by rapid filtration on a Millipore filtration manifold, followed by three washes of 200 μA ice-cold assay buffer. The plates were left to dry overnight before adding 40 μA scintillant (MicroScint-20). The plates were then sealed (Sealing Tape SI, Nunc 236366) and read in a Wallac MicroBeta Trilux beta-counter for 1.5 min per well. Compounds were tested as 9-concentration response curves in duplicate, ranging from 30 μM to 3 nM in 1:3 dilution steps. Dilution curves were prepared in 100% DMSO. The reference compound (terfenadine) was tested as an eight-concentration response curve, ranging from 10 μM to 0.6 nM in 1:4 dilution steps.

PIM1, sequence (P11309 whole entry): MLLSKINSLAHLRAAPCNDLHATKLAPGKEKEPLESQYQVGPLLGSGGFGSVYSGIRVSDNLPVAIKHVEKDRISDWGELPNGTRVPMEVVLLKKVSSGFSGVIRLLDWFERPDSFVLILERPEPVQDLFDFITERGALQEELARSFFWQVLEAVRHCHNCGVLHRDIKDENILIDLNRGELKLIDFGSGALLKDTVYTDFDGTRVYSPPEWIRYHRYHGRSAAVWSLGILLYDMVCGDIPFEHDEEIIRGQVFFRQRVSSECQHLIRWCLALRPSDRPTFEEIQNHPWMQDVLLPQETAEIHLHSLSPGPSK

| Structure (SMILES) | IC50 (PIM1) | IC50 (PIM2) | IC50 (PIM3) | IC50 (GSK3β) | EC50 [1] | IC50 (hERG) |
| --- | --- | --- | --- | --- | --- | --- |
| CC1C(c2ccncc2NC(=O)c2ccc(F)c(-c3c(F)cccc3F)n2)OC(C)[C@@H](O)C1O (stereo in doubt) [Example 64, 6-(2,6-difluorophenyl)-N-(4-((2S,3R,4S,5S,6S)-4,5-dihydroxy-3,6-dimethyltetrahydro-2H-pyran-2-yl)pyridin-3-yl)-5-fluoropicolinamide] | 0.001 µM | 0.016 µM | 0.002 µM | 0.549 µM | 0.8 µM | > 30 µM |
| C[C@@H]1O[C@H](c2ccncc2NC(=O)c2ccc(F)c(-c3c(F)cccc3F)n2)[C@@H](F)[C@H](O)[C@@]1(C)O (stereo in doubt) [Example 71, 6-(2,6-difluorophenyl)-5-fluoro-N-(4-((2R,3S,4R,5R,6S)-3-fluoro-4,5-dihydroxy-5,6-dimethyltetrahydro-2H-pyran-2-yl)pyridin-3-yl)picolinamide] | 0.001 µM | 0.052 µM | 0.006 µM | 1.48 µM | 6.4 µM | > 30 µM |
| C[C@H]1C[C@@H](O)C[C@@H](c2ccncc2NC(=O)c2csc(-c3c(F)cccc3F)n2)O1 (stereo in doubt) [Example 127, 2-(2,6-difluorophenyl)-N-(4-((2S,4R,6S)-4-hydroxy-6-methyltetrahydro-2H-pyran-2-yl)pyridin-3-yl)thiazole-4-carboxamide] | 0.001 µM | 0.324 µM | 0.019 µM | 0.025 µM | 9.6 µM | > 30 µM |
| O=C(Nc1cnccc1[C@H]1C[C@@H](O)CCO1)c1ccc(F)c(-c2c(F)cccc2F)n1 [Example 129, 6-(2,6-difluorophenyl)-5-fluoro-N-(4-((2R,4S)-4-hydroxytetrahydro-2H-pyran-2-yl)pyridin-3-yl)picolinamide] | 0.002 µM | 0.147 µM | 0.013 µM | 0.361 µM | > 10 µM | > 30 µM |
| CC(C)NC(=O)c1ccc(F)c(-c2ccc(N)c(C(=O)Nc3cnccc3[C@@H]3C[C@@H](O)[C@](C)(O)[C@@H](C)O3)n2)c1F [Example 98, 3-amino-6-(2,6-difluoro-3-(isopropylcarbamoyl)phenyl)-N-(4-((2S,4R,5S,6R)-4,5-dihydroxy-5,6-dimethyltetrahydro-2H-pyran-2-yl)pyridin-3-yl)picolinamide] | 0.002 µM | 0.002 µM | 0.003 µM | 0.916 µM | 0.5 µM | > 30 µM |
| CC1C(c2ccncc2NC(=O)c2ccc(F)c(-c3c(F)cccc3F)n2)OC(C)[C@H](O)C1O (stereo in doubt) [Example 65, 6-(2,6-difluorophenyl)-N-(4-((2R,3S,4R,5R,6R)-4,5-dihydroxy-3,6-dimethyltetrahydro-2H-pyran-2-yl)pyridin-3-yl)-5-fluoropicolinamide] | 0.001 µM | 0.046 µM | 0.003 µM | 0.051 µM | 8.3 µM | > 30 µM |
| C[C@@H]1O[C@H](c2ccncc2NC(=O)c2ccc(F)c(-c3c(F)cccc3F)n2)C[C@H](O)[C@@]1(C)O (stereo in doubt) [Example 112, 6-(2,6-difluorophenyl)-N-(4-((2S,4S,5R,6S)-4,5-dihydroxy-5,6-dimethyltetrahydro-2H-pyran-2-yl)pyridin-3-yl)-5-fluoropicolinamide] | 0.001 µM | 0.003 µM | 0.002 µM | 0.163 µM | 1.2 µM | > 30 µM |
